According to patent publication US12061143B2, “Methods for rapid determinations of antibiotic susceptibility phenotypes” (priority 2018, dated 2024):

Assays:
Format in all cases: cell-based
E. coli Mu14S = assay: MIC by broth microdilution AST
Description: (§1) Varied counts of bacteria were mixed with human blood and diluted 1:9 (v/v) with bacterial growth medium to desired bacterial concentrations (<10 CFU/mL final solution) and plated to independently confirm CFU/mL blood. Saponin was immediately added and the samples shaken for 15 minutes to achieve selective blood cell lysis. After hemolysis, bacteria were spun down and washed with PBS. The pellets were resuspended in bacterial growth medium and incubated at 37° C. for 2 hours, followed by another 3-hour incubation with antibiotics at various fractions of the minimum inhibition concentration (MIC, as independently determined by microdilution from the pure starting culture, Table 1) for sensitive strains or at the CLSI MIC resistant breakpoints^(12) for the highly resistant strains. Changes in scattered light signals largely resulting from bacterial growth inhibition were monitored by flow cytometry, and the difference in the 2-D scatter histograms with and without antibiotic treatment was quantified with PB-sQF statistics.^(1) Using PB-sQF, distance was calculated for each antibiotic concentration relative to its own no-antibiotic control and expressed as “fold distance” relative to the 99% confidence limit distance between the no-antibiotic control and the sensitive breakpoint. This allowed comparison of fold distances among all samples as each is individually paired to its own control, as is each replicate.
(§2) All clinical isolates (E. coli strains Mu14S and Mu890, K. pneumoniae strains Mu670 and Mu55, A. nosocomialis strains M2) were obtained from the Georgia Emerging Infection Program (GEIP). The MIC of each isolate was determined by a clinical microbiology laboratory using post blood culture automated AST and confirmed using broth microdilution in our laboratory. The MICs of each strain were measured to be as follows. For A. nosocomialis strain M2, 1 μg/mL tetracycline, 2 μg/mL gentamicin, and >1024 μg/mL ampicillin. For E. coli strain Mu890, 1 μg/mL tetracycline, 8 μg/mL gentamicin, and >1024 μg/mL ampicillin. For E. coli strain Mu14S, >64 μg/mL tetracycline, 8 μg/mL gentamicin, and >1024 μg/mL ampicillin. For K. pneumoniae strain Mu55, >64 μg/mL tetracycline, 1 μg/mL gentamicin, and >1024 μg/mL ampicillin. For K. pneumoniae strain Mu670, 2 μg/mL tetracycline, 4 μg/mL gentamicin, and >1024 μg/mL ampicillin.

K. pneumoniae Mu670 = assay: MIC by broth microdilution AST
Description: as §1, §2

A. nosocomialis M2 = assay: MIC by broth microdilution AST
Description: as §1, §2

E. coli Mu890 = assay: MIC by broth microdilution AST; details: E. coli Mu890
Description: as §1, §2

K. pneumoniae Mu55 = assay: MIC by broth microdilution AST
Description: as §1, §2

[1] = system: Lab-strain E. coli (ATCC); assay: FAST with low bacterial counts (500 counts by flow cytometry); details: each antibiotic at MIC, ¼ MIC and 1/16 MIC, bars beyond the 99% confidence line
Description: FIG. 14. Bactericidal Antibiotic-induced changes for low counts of E. coli. Lab-strain E. coli (ATCC) ASTs performed with 500 counts by flow cytometry with gentamicin (Gen), penicillin G (PenG), and tetracycline (Tet) each at MIC, ¼ MIC and 1/16 MIC. This strain is seen to be sensitive to all three antibiotics, as the bars extend beyond the 99% confidence line.
While both morphology and growth inhibition occur upon exposure to antibiotics near the minimum inhibitory concentration, standard ASTs are based on growth inhibition alone. The presence of bacteria is clearly indicated by the presence of a particular scattering peak in the multidimensional histogram. This is much more sensitive and less affected by background than is shifts in a peak resulting from morphological changes upon antibiotic exposure. […] For even a few hundred counts, the presence of a bacterial population can be readily assessed with flow cytometry, but error bars and statistical distances must be properly determined relative to no-antibiotic controls. When too few counts for triplicate runs exist, control and each antibiotic exposure histograms are treated as probability distributions that are representative of the true mother distribution for each condition. Each histogram is binned (either adaptively with probability binning or using regular bins) and the distribution of data within each bin is determined. […]

[2] = system: 10% human blood samples without bacteria inoculation; assay: Antibiotic-treated 10% human blood only control (no bacteria), flow cytometry; details: 10% human blood without bacteria, around the resistance breakpoints of Enterobacteriaceae
Description: FIGS. 6A-6D. Antibiotic-treated 10% human blood only results. Cytometric data with (FIG. 6A) Ampicillin (FIG. 6B) Tetracycline (FIG. 6C) Gentamicin. The greyscale plots are the no-antibiotic controls and the black contour plots are the antibiotic-treated data with the antibiotic concentration indicated at each plot. (FIG. 6D) PB-sQF results for FIGS. 6A-6C). […] For each antibiotic, the resistant breakpoints of Enterobacteriaceae are 16 μg/mL for tetracycline and gentamicin and 32 μg/mL for ampicillin.
This confirms that the gentamicin sensitivity of Mu14S observed after blood culture^(1) can also be observed on much shorter timescales with FAST. Overnight plating confirms that initial Mu14S counts were 3, 2, 5 and CFU/mL for tetracycline, gentamicin and ampicillin data after 10-fold dilution of the blood/bacteria mixture, corresponding to FAST being performed on whole blood samples containing ˜30, ˜20 and ˜50 CFU/mL. […] Thus, diluting bacterimic blood specimens 1:9 (v:v) directly into saponin-containing growth medium provides a path to ASTs within 8 hours from initial blood draw, with excellent results matching independent (36-44 hrs) MIC determinations from pure, overnight cultures (˜10^8 CFU/mL) that could only be initiated after (˜24 hr) positive blood culture.

[3] = system: A. nosocomialis strain M2; assay: FAST flow cytometry AST with PB-sQF, bacteria recovered from 10% human blood; details: M2 spiked in 10% human blood, assayed within 8 hrs of simulated blood draw
Description: Varied counts of bacteria were mixed with human blood and diluted 1:9 (v/v) with bacterial growth medium to desired bacterial concentrations (<10 CFU/mL final solution) and plated to independently confirm CFU/mL blood. Saponin was immediately added and the samples shaken for 15 minutes to achieve selective blood cell lysis. After hemolysis, bacteria were spun down and washed with PBS. […] This allowed comparison of fold distances among all samples as each is individually paired to its own control, as is each replicate.
To simulate a blood specimen from a patient with bacteremia, the isolates were grown, diluted to the desired CFU/mL in blood (ZenBio, Research Triangle Park, NC) and saponin was added to achieve the final diluted sample. Initial bacterial cultures were prepared using Luria-Bertani (LB) broth for (E. coli) or cation-adjusted Mueller-Hinton broth (CAMHB). The fresh bacterial cultures started from ˜0.05 optical density (OD) by inoculating a 6-mL fresh growth medium with overnight culture were grown in an incubator shaker (MaxQ 4000, Thermal Fisher Scientific, Waltham, MA) at 37° C. and 225 rpm. […] Bacterial densities were determined by plating onto LB plates. […]
Cytometric data were collected by BD LSRFortessa flow cytometer (Becton Dickinson, Franklin Lake, NY) equipped with a 100 mW, 488 nm laser for the scatter signal. […] Data were recorded with FACSDiVa provided by BD. […]

[4] = class according to 2016 CLSI handbook
[5] = microdilution from pure culture

## Gentamicin
E. coli Mu14S; [4]
  MIC (S/I/R): (I)
E. coli Mu14S; [5]
  MIC: 8 µg/mL
K. pneumoniae Mu670; [4]
  MIC (S/I/R): (S)
K. pneumoniae Mu670; [5]
  MIC: 4 µg/mL
A. nosocomialis M2; [4]
  MIC (S/I/R): (S)
A. nosocomialis M2; [5]
  MIC: 2 µg/mL
E. coli Mu890; [4]
  MIC (S/I/R): (I)
E. coli Mu890; [5]
  MIC: 8 µg/mL
K. pneumoniae Mu55; [4]
  MIC (S/I/R): (S)
K. pneumoniae Mu55; [5]
  MIC: 1 µg/mL
[1]
  PB-sQF AST susceptibility at low counts: sensitive
[2]
  scattered light histograms change: do not significantly change
[3]
  PB-sQF FAST susceptibility: susceptible
